Literature values as cited in patent US20220313671A1 (Chiesi Farmaceutici S.p.A., priority 2011, published 2022).

CCCC(=O)OCOC(=O)C1=C(C)NC(C)=C(C(=O)OC)C1c1cccc(Cl)c1Cl (stereo not drawn) [clevidipine]
full offset of activity (rapid offset of activity): 5 to 15 min | onset of activity (rapid onset of activity): 2 to 4 min | return of blood pressure to pre-treatment levels (time after discontinuation of clevidipine): 5 to 15 min
